Results taken from patent US11492618B2, “Expression control using a regulatable intron” (ASKLEPIOS BIOPHARMACEUTICAL, INC., priority 2017, dated 2022).

Columns and labels:
HEK293F cells [1] = assay: EGFP expression from ATF6 constructs induced by wtAAV production; type: cell-based, human
Protocol: In this experiment transfections were carried out in 24-well plates as previously described. The ATF6 plasmids (SYNP-ATF6-01 and SYNP-ATF6-02 constructs in the pMA-RQ vector) were transfected into HEK293F cells (using MAX reagent, as above) and after 24 hrs GFP was measured. After GFP measurement the same cells were transfected with the plasmids for wtAAV production pGRG25AAV2 (provided by Adrien Savvy) and pHelper plasmid from Takara/Clonetech in a 1:1 ratio. EGFP fluorescence was then measured after 1, 3, 5 and 24 hrs (FIGS. 7 and 8—not all data is shown). Both plasmids are required for wtAAV production, with the pGRG25AAV2 providing the wtAAV2 genome and the pHelper plasmid providing the E2, VA and E4 helper functions required for virus replication.
This confirmed successful AAV expression. Zs green is a variant of eGFP and as such GFP measurement was carried out on these cells as previously described.

HEK293F cells [2] = assay: EGFP expression from 6xATF6 promoter constructs with and without XBP1 intron after 2 mM DTT; type: cell-based, human
Protocol: For this study two constructs were prepared: • 1) 6×ATF6 elements (having the sequence TGACGTGCT) upstream of the CMV-minimal promoter (CMV-MP) and EGFP; this construct was named SYNP-ATF6-01 (see below, SEQ ID NO: 30). • 2) 6×ATF6 elements upstream of the CMV-MP and EGFP with XBP1 intron insertion; this construct was named SYNP-ATF6-02 (see below, SEQ ID NO: 31).
HEK293F cells were used in this study. All growth conditions, transfections and analyses were carried out as described in Example 1.
24 well transfections were set-up as described above. Each condition was performed in duplicate/triplicate. 24 hrs after transfection the cells were treated with either 2 mM DTT, to induce the UPR, or by mock treatment with an equivalent volume of water. 1, 3, 5 and 24 hrs after treatment of the cells GFP fluorescence was measured as previously described.
The ratio of GFP fluorescence to the control plasmid was calculated before and after induction.

Which “background level of EGFP before wtAAV production” value (HEK293F cells [1]) does the source give for “SYNP-ATF6-02: 6×ATF6 elements upstream of the CMV-MP and EGFP with XBP1 intron insertion (SEQ ID NO: 31)” here?
Its value is “zero”.

And the “GFP expression after induction, ratio to CMV-IE” value (HEK293F cells [2]; 2 mM DTT, 3 independent experiments)?
Its value is 4 times the level of CMV-IE.

And the “background level of GFP fluorescence” value (HEK293F cells [2]; before DTT, raw data)?
Its value is “practically zero”.
